Structures are written as SMILES. Activity calls are given as the source filed them. No cut-off for these calls is given here. A value given as a limit tells only on which side of the number the result lay.

Data on one molecule can be found in ChEMBL document CHEMBL6083286, “Discovery of ERD-12310A as an Exceptionally Potent and Orally Efficacious PROTAC Degrader of Estrogen Receptor α (ERα)” (J Med Chem, 2024).

The subject of series [1] is MCF7. In words: Antitumor activity against human MCF7 cells xenografted in SCID mouse assessed as tumor growth inhibition at 10 mg/kg, po administered for 41 to 76 days. The series is classed as functional. Particulars: time 41-76 day, read-out: TGI. A general note: In xenograft studies the graft and the host belong to different species.
For series [2], the target named is Cytochrome P450 2C9 (Homo sapiens, UniProt P11712). In words: Inhibition of CYP2C9 in human liver microsomes incubated for 5 mins in presence of NADPH by LC-MS/MS analysis. The series is classed as ADME, Microsome. For orientation: Microsomes from liver hold many membrane-bound enzymes, among them those of drug oxidation.
Sequence of Cytochrome P450 2C9 (P11712 whole entry): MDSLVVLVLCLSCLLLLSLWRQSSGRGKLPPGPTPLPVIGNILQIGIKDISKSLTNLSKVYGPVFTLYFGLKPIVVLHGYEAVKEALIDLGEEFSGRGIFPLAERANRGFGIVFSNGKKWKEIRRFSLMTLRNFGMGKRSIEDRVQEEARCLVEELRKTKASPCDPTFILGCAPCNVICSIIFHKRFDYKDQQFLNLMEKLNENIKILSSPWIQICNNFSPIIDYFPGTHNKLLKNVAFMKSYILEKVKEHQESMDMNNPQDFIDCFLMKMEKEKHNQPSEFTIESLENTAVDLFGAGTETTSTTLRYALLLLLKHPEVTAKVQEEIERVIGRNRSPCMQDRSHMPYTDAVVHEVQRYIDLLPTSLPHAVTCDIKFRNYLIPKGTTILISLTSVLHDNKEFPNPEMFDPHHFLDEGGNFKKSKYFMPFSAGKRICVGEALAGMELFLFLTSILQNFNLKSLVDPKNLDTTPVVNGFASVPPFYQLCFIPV
Series [3] can be described thus: Stability in dog plasma assessed as half life. Type of series: ADME, cell-free, Canis lupus familiaris.
Series [4] concerns the target T1, Estrogen receptor (Homo sapiens, UniProt P03372).
T1 sequence (P03372 whole entry): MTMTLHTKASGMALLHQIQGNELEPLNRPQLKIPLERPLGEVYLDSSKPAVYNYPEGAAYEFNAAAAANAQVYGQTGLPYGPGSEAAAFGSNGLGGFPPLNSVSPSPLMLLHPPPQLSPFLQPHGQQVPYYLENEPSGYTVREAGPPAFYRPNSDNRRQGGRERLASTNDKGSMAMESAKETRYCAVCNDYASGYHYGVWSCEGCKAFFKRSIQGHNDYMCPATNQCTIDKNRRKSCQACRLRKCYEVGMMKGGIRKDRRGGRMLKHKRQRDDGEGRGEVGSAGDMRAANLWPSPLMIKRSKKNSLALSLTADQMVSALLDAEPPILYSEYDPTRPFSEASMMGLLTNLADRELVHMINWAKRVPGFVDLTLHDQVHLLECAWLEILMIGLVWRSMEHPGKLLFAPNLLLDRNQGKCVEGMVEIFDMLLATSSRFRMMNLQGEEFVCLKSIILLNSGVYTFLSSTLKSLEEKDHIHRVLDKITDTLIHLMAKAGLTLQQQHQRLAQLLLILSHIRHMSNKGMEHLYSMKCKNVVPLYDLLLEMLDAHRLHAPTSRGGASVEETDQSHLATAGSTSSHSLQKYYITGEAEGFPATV
As to the kind of experiment: Binding affinity to human ERalpha receptor assessed as inhibition constant.

Series [5] in a line: Drug concentration in SCID mouse plasma at 30 mg/kg, po administered daily for 3 days and measured after 24 hrs by LC-MS/MS analysis. Type of series: ADME, organism-based.
The subject of series [6] is T47D. In words: PROTAC activity at CRBN/ ERalpha Y537S mutant in human T47D cells assessed as reduction in ERalpha protein level at 10 to 100 nM measured at 7 hrs by Western blot analysis. Type of series: cell-based. On the set-up: scale not given: the % may be the effect or the level left. Particulars: dose 10-100 nM. (Immunoblotting shows a protein as a band on a membrane.)

Series [7] deals with T47D. As to the kind of experiment: PROTAC activity at CRBN/ ERalpha D538G mutant in human T47D cells assessed as reduction in ERalpha protein level at 10 to 100 nM measured at 7 hrs by Western blot analysis. The series is classed as cell-based. On the set-up: scale not given: the % may be the effect or the level left. Particulars: dose 10-100 nM.
Series [8] in a line: Drug concentration in SCID mouse plasma at 10 mg/kg, po administered daily for 3 days and measured after 6 hrs by LC-MS/MS analysis. Type of series: ADME, organism-based.
Series [9] in a line: Cmax in mouse at 3 mg/kg, po or 1 mg/kg, iv measured upto 24 hrs by LC-MS/MS analysis. Type of series: ADME, organism-based. Particulars: in vivo.
Series [10] addresses T2, Protein cereblon/Estrogen receptor (Homo sapiens, UniProt P03372+Q96SW2). In words: PROTAC activity at CRBN/ERalpha in human MCF7 cells assessed as reduction in ERalpha protein level measured after 12 hrs by Western blot analysis relative to control. Type of series: cell-based.
Series [11] is described as follows: Volume of distribution at steady state in mouse at 3 mg/kg, po or 1 mg/kg, iv measured upto 24 hrs by LC-MS/MS analysis. Particulars: in vivo. The series is classed as ADME, organism-based.
Series [12] in a line: Half life in dog at 3 mg/kg, po or 1 mg/kg, iv measured upto 24 hrs by LC-MS/MS analysis. Type of series: ADME, organism-based, Canis lupus familiaris. Particulars: in vivo.
Series [13] has as its target T2, Protein cereblon/Estrogen receptor. In words: PROTAC activity at CRBN/ERalpha in human MCF7 cells assessed as reduction in ERalpha protein level at 0.3 nM measured at 4 hrs by Western blot analysis. The series is classed as cell-based.
Series [14] has as its system MCF7. In words: Antitumor activity against human MCF7 cells expressing ESR1 Y537S mutant xenografted in SCID mouse assessed as tumor growth inhibition at 10 mg/kg, po administered 5 days a week for 5 weeks. The series is classed as functional. Particulars: MCF7, 840 h, read-out: TGI.
Series [15] has as its target T2, Protein cereblon/Estrogen receptor. In words: PROTAC activity at CRBN/ERalpha in human MCF7 cells assessed as reduction in ERalpha protein level at 5 nM measured for 4 hrs in presence of MLN-4924 by Western blot analysis. The series is classed as cell-based.
The target in series [16] is Cytochrome P450 3A4 (Homo sapiens, UniProt P08684). As to the kind of experiment: Inhibition of CYP3A4 in human liver microsomes using midazolam as substrate preincubated for 5 mins followed by NADPH addition and measured after 10 mins by LC-MS/MS analysis. Type of series: ADME, Microsome.
Sequence of Cytochrome P450 3A4 (P08684 whole entry): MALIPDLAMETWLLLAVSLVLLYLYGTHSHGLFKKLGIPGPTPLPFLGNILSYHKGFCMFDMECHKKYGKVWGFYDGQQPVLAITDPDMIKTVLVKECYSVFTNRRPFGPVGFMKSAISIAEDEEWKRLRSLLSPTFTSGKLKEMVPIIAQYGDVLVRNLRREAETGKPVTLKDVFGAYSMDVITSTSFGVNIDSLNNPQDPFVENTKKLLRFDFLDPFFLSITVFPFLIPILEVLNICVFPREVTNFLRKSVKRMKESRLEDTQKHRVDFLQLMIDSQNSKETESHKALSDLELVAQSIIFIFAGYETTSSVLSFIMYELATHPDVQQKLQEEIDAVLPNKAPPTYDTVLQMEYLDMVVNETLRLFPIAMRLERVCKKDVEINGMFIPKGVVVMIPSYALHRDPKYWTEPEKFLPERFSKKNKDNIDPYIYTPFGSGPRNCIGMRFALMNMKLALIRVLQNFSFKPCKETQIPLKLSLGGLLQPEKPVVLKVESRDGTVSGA
A short description of series [17]: Cmax in dog at 3 mg/kg, po or 1 mg/kg, iv measured upto 24 hrs by LC-MS/MS analysis. Particulars: in vivo. The series is classed as ADME, organism-based, Canis lupus familiaris.
Series [18] deals with T2, Protein cereblon/Estrogen receptor. In words: PROTAC activity at CRBN/ERalpha in human T47D cells assessed as reduction in ERalpha protein level at 10 nM measured at 4 hrs by Western blot analysis. The series is classed as cell-based.
The target is the same in series [19]. As to the kind of experiment: PROTAC activity at CRBN/ERalpha in human MCF7 cells assessed as reduction in ERalpha protein level at 5 nM measured for 4 hrs in presence of lasofoxifene by Western blot analysis. The series is classed as cell-based.
The nature of series [20]: Half life in rat at 3 mg/kg, po or 1 mg/kg, iv measured upto 24 hrs by LC-MS/MS analysis. Type of series: ADME, organism-based. Particulars: in vivo.
A short description of series [21]: AUC (0 to infinity) in dog at 3 mg/kg, po or 1 mg/kg, iv measured upto 24 hrs by LC-MS/MS analysis. Type of series: ADME, organism-based, Canis lupus familiaris. Particulars: in vivo.
For series [22], the target named is T3, Cytochrome P450 1A2 (Homo sapiens, UniProt P05177).
T3 sequence (P05177 whole entry): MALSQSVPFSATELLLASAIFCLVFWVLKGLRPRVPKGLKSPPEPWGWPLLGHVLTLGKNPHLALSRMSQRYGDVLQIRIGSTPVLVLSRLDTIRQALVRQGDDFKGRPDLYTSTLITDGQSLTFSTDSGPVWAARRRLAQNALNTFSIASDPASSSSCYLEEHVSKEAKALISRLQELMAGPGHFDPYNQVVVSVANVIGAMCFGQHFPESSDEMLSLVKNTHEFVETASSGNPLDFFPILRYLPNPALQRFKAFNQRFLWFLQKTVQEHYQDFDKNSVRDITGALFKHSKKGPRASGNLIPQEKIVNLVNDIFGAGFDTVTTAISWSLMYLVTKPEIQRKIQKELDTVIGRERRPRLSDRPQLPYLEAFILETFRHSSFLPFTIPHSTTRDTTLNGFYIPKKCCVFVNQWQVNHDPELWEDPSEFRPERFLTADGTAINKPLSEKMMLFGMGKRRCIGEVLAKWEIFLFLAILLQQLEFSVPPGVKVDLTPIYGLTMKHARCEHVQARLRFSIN
As to the kind of experiment: Inhibition of CYP1A2 in human liver microsomes incubated for 5 mins in presence of NADPH by LC-MS/MS analysis. Type of series: ADME, Microsome.

Series [23] relates to MCF7. As to the kind of experiment: Antitumor activity against human MCF7 cells expressing ESR1 Y537S mutant xenografted in SCID mouse assessed as tumor growth inhibition at 30 mg/kg, po administered 5 days a week for 7 weeks. Type of series: functional. Particulars: MCF7, 1176 h, read-out: TGI.

T2 sequence (Q96SW2 whole entry, looked up, one chain of several): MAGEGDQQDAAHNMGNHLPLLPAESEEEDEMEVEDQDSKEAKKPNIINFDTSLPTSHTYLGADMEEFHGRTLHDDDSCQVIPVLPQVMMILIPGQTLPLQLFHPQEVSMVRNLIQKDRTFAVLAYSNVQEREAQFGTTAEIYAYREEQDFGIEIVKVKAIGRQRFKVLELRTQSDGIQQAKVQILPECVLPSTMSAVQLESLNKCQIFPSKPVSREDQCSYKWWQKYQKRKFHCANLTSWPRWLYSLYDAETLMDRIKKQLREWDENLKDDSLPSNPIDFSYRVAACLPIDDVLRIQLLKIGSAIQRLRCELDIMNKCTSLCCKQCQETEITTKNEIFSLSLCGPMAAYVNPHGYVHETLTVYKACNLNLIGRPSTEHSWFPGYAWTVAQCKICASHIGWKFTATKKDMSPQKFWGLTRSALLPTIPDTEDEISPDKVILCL

In the case of `O=C1CC[C@H](N2Cc3c(ccc4c3OCC43CCN(C[C@@H]4CCC5(CCN(c6ccc([C@@H]7c8ccc(O)cc8CC[C@@H]7c7ccccc7)cc6)CC5)OC4)CC3)C2=O)C(=O)N1`, the inhibition in vivo at 10 mg/kg in series [1] is 94%; in [14] it was 75%. Further, the IC50 in series [2], in [16] and in series [22] was above 10 µM throughout. Also, the t1/2 is above 4 h in [3], 23.2 h in [12] and 5.6 h in series [20]. Further, the Ki in [4] was 0.00095 µM. In series [5], this molecule gave a concentration at 96 h of 50 ng/mL. Besides, the Activity in series [6] and in series [7] was above 80% throughout. Further, the concentration at 78 h in series [8] worked out at 380 ng/mL. Also, the Cmax stood at 58.6 ng/mL in [9] and 469.4 ng/mL in [17]. For the same molecule, the Emax in [10] was 103%. Further, in series [11], the Vdss amounted to 5.8 L/kg. Besides, the result in series [13] and in series [18] was Active. Moreover, the result in [15] and in [19] was inactive. The AUC(0-inf) in series [21] stood at 15500 ng·h/mL. The inhibition in vivo at 30 mg/kg in series [23] is 100%.

Broadly, the IC50 is the concentration that gives 50% inhibition. The Ki is a measure of affinity in units of concentration, obtained from inhibition or displacement. The term Cmax denotes the peak of the concentration-time curve. What is called Emax is the greatest response seen or fitted, relative to the assay's reference. What is called AUC(0-inf) is total exposure, with the tail of the curve extrapolated.
